Measurements as given in ChEMBL document CHEMBL1143937, “1-deoxyrubralactone, a novel specific inhibitor of families X and Y of eukaryotic DNA polymerases from a fungal strain derived from sea algae” (Bioorg Med Chem, 2008).
Active and inactive are the calls of the source. The rule behind the calls is not given here.

Experiments:
[1] = biological target: T1, DNA polymerase iota (Homo sapiens) (UniProt Q9UNA4); experiment: Inhibition of human DNA polymerase iota at 100 uM
T1 sequence (whole entry): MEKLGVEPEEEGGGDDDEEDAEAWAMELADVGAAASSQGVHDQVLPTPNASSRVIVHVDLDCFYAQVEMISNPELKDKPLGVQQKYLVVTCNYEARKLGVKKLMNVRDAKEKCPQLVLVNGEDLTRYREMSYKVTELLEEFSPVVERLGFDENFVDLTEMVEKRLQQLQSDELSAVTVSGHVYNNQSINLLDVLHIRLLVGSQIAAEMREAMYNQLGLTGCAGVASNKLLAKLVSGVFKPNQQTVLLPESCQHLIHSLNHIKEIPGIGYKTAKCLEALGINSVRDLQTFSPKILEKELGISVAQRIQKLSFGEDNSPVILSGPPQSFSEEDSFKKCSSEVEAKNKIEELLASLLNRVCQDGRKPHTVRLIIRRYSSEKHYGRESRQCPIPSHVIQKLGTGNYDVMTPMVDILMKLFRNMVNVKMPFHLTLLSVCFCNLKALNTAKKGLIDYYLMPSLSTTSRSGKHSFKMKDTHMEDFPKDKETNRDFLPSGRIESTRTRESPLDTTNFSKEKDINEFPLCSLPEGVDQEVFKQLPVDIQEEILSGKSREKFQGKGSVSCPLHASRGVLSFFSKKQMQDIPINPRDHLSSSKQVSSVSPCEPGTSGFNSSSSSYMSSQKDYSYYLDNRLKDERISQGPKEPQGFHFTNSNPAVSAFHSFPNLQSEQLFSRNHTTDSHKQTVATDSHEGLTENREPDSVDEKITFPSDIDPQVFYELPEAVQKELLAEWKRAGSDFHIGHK

[2] = test system: Escherichia coli; experiment: Inhibition of Escherichia coli DNA polymerase 1 at 100 uM
[3] = biological target: Human immunodeficiency virus type 1 reverse transcriptase (Human immunodeficiency virus 1) (UniProt Q72547); experiment: Inhibition of human immunodeficiency virus 1 reverse transcriptase at 100 uM
[4] = organism: Bos taurus; experiment: Inhibition of calf primase DNA polymerase alpha at 100 uM
[5] = biological target: Inosine-5'-monophosphate dehydrogenase 2 (Mus musculus) (UniProt P24547); experiment: Inhibition of mouse IMP dehydrogenase 2 at 100 uM
[6] = test system: Thermus aquaticus; experiment: Inhibition of Taq DNA polymerase at 100 uM
[7] = organism: Homo sapiens; experiment: Inhibition of human DNA polymerase gamma at 100 uM
[8] = test system: Brassica oleracea; experiment: Inhibition of cauliflower DNA polymerase beta at 100 uM
[9] = test system: Escherichia phage T7; experiment: Inhibition of T7 RNA polymerase […] at 100 uM
[10] = organism: Homo sapiens; experiment: Inhibition of human DNA polymerase epsilon at 100 uM
[11] = biological target: T2, DNA polymerase lambda (Homo sapiens) (UniProt Q9UGP5); experiment: Inhibition of human DNA polymerase lambda at 100 uM
T2 sequence (whole entry): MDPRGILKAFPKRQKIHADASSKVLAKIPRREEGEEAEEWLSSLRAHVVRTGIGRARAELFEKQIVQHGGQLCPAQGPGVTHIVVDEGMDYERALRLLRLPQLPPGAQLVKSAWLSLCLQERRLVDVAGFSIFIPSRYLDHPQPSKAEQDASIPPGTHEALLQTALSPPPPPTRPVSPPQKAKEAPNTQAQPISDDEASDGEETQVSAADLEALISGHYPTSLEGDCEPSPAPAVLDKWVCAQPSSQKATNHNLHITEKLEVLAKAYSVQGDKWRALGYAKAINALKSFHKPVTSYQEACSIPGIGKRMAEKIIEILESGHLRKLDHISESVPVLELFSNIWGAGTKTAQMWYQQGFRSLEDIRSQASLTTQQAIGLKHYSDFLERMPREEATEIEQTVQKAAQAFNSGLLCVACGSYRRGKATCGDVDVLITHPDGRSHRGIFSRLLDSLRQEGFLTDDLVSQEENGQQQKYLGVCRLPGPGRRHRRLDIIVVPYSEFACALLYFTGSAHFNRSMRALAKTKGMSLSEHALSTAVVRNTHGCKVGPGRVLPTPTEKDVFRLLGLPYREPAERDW

[12] = biological target: Telomerase reverse transcriptase (Homo sapiens) (UniProt O14746); experiment: Inhibition of human telomerase at 100 uM
[13] = test system: Tequatrovirus T4; experiment: Inhibition of T4 DNA polymerase at 100 uM
[14] = organism: Bos taurus; experiment: Inhibition of calf DNA polymerase alpha at 100 uM
[15] = organism: Bos taurus; experiment: Inhibition of calf terminal deoxynucleotidyl transferase at 100 uM
[16] = biological target: DNA polymerase beta (Rattus norvegicus, UniProt P06766); experiment: Inhibition of rat DNA polymerase beta
[17] = test system: Brassica oleracea; experiment: Inhibition of cauliflower DNA polymerase alpha at 100 uM
[18] = biological target: T3, DNA polymerase kappa (Homo sapiens, UniProt Q9UBT6); experiment: Inhibition of human DNA polymerase kappa
T3 sequence (Q9UBT6 whole entry): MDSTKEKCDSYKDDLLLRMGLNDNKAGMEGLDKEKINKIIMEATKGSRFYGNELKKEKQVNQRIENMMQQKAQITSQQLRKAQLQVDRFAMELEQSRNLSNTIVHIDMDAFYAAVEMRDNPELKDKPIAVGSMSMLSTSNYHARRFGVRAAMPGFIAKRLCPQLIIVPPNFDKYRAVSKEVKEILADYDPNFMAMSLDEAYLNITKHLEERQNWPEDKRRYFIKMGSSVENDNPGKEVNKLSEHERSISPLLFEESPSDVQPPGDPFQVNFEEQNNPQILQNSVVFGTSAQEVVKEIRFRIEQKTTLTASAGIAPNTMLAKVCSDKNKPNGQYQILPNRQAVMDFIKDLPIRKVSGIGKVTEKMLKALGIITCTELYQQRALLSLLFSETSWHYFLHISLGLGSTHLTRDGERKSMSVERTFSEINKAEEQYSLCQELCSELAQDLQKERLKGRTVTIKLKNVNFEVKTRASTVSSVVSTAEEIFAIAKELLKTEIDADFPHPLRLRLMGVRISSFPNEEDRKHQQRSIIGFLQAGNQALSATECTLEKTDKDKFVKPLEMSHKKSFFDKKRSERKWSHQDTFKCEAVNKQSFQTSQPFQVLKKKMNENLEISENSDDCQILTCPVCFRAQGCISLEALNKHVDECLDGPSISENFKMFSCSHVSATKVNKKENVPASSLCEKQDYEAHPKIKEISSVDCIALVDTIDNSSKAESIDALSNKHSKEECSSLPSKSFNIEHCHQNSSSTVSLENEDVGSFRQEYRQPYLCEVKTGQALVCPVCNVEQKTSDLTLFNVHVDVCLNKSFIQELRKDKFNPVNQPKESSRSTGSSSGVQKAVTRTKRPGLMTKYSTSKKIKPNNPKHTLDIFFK

[19] = organism: Homo sapiens; experiment: Inhibition of human DNA topoisomerase 2 at 100 uM
[20] = biological target: Deoxyribonuclease-1 (Bos taurus) (UniProt P00639); experiment: Inhibition of bovine deoxyribonuclease 1 at 100 uM
[21] = biological target: T4, DNA polymerase eta (Homo sapiens) (UniProt Q9Y253); experiment: Inhibition of human DNA polymerase eta at 100 uM
T4 sequence (whole entry): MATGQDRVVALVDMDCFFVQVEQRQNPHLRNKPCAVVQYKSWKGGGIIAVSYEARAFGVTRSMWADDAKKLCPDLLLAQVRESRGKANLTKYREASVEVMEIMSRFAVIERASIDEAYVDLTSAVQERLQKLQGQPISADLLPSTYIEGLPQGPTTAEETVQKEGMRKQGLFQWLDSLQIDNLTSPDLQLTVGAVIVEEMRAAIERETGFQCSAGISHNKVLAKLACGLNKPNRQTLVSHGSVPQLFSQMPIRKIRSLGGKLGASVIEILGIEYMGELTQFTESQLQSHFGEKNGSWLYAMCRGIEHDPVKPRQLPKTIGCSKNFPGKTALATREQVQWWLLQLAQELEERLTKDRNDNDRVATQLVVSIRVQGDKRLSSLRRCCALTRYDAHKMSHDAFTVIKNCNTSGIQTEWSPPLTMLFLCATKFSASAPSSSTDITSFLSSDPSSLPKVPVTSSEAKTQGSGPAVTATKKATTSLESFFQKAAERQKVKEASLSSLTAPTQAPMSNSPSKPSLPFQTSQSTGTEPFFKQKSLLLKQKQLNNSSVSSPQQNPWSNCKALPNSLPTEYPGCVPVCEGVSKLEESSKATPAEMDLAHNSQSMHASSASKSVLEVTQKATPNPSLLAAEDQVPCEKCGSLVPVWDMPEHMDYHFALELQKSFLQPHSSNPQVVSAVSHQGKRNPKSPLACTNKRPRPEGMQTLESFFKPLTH

[22] = biological target: T5, DNA topoisomerase 1 (Homo sapiens) (UniProt P11387); experiment: Inhibition of human DNA topoisomerase 1 at 100 uM
T5 sequence (whole entry): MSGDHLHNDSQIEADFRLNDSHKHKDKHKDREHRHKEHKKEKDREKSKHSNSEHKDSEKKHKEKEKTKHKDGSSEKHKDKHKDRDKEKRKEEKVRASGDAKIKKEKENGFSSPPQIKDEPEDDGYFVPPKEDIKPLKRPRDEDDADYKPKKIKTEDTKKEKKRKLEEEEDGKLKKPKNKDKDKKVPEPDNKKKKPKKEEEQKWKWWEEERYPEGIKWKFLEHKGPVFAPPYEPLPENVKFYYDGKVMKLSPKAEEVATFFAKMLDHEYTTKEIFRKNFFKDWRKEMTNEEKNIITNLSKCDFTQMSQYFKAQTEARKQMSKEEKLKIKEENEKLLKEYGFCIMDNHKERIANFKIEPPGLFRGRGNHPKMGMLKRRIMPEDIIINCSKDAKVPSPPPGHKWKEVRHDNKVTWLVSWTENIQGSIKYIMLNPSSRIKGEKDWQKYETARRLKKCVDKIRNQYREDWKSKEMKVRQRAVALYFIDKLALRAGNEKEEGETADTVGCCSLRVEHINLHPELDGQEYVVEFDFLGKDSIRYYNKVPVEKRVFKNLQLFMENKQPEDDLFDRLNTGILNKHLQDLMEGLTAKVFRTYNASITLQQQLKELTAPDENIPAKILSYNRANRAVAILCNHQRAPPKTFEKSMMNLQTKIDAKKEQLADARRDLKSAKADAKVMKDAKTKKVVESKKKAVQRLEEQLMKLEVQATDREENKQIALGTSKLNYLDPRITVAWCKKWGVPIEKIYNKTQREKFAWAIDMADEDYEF

[23] = biological target: Polynucleotide kinase (Enterobacteria phage T4) (UniProt P06855); experiment: Inhibition of T4 polynucleotide kinase at 100 uM; conditions: Tequatrovirus T4
[24] = biological target: T6, DNA polymerase delta catalytic subunit (Homo sapiens) (UniProt P28340); experiment: Inhibition of human DNA polymerase delta at 100 uM
T6 sequence (whole entry): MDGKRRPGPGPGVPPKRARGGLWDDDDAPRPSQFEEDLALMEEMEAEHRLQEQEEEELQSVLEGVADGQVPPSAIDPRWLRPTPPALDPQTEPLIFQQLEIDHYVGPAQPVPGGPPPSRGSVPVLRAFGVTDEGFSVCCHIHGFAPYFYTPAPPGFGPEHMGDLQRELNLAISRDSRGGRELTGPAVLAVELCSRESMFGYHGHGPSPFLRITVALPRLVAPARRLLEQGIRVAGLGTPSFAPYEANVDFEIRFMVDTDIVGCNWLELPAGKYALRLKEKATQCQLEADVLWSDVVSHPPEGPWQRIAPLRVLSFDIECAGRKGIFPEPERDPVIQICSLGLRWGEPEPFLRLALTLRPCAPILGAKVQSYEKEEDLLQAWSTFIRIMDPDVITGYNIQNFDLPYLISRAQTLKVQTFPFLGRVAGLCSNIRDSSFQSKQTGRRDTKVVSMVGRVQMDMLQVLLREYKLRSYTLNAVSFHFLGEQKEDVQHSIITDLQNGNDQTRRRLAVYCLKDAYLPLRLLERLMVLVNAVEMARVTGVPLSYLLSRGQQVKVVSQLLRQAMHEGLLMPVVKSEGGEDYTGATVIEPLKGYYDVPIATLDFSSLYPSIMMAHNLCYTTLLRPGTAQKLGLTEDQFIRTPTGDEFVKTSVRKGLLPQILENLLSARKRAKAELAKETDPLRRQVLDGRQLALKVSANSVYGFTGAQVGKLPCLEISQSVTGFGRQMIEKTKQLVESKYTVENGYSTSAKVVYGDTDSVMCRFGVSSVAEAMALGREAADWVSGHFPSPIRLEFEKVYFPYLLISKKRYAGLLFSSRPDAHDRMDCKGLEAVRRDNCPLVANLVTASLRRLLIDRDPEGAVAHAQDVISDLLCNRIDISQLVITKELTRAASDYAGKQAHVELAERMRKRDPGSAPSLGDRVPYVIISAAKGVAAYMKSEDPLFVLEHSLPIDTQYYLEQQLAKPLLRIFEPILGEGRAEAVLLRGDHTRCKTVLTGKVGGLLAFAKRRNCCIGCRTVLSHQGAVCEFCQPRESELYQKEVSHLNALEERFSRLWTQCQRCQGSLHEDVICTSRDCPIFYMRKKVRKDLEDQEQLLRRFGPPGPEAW

Sequence of Polynucleotide kinase (Enterobacteria phage T4) (P06855 whole entry): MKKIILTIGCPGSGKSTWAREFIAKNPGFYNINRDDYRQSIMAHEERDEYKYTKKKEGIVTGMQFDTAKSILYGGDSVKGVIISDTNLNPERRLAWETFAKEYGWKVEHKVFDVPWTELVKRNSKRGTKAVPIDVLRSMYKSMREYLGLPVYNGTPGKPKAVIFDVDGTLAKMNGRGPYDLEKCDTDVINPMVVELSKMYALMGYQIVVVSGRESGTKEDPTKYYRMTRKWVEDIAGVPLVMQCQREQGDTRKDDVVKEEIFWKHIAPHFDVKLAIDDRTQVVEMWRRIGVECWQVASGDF
Sequence of Telomerase reverse transcriptase (Homo sapiens) (O14746 whole entry): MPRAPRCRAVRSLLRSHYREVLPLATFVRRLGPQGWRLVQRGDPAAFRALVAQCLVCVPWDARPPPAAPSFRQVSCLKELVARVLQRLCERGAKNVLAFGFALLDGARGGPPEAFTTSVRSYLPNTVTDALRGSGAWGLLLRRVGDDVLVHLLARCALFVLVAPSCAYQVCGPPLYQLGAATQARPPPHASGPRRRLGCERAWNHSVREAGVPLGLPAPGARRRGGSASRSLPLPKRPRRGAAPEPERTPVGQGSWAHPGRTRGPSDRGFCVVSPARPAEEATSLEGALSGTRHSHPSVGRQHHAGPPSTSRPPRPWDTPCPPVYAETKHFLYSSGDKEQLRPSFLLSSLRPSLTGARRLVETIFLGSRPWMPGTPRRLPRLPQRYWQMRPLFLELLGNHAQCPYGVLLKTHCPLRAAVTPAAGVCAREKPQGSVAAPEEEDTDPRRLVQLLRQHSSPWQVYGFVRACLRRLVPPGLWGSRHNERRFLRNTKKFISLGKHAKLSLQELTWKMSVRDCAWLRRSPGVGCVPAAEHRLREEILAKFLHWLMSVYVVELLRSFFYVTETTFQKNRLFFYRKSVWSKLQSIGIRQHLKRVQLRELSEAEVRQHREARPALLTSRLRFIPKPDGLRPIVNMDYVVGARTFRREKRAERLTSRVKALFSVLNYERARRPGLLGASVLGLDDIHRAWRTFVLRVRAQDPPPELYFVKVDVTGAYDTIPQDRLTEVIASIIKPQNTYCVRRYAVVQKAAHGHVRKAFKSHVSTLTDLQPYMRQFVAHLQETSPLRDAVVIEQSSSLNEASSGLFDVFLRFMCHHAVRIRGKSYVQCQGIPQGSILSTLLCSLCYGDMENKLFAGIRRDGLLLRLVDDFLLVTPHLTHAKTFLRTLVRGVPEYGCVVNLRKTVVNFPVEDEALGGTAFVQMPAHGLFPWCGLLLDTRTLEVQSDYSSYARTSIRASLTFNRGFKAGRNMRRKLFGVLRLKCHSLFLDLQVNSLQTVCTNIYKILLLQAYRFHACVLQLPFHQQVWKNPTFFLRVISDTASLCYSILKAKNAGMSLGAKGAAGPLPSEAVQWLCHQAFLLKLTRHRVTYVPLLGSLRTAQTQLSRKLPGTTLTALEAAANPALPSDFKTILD
Sequence of Deoxyribonuclease-1 (Bos taurus) (P00639 whole entry): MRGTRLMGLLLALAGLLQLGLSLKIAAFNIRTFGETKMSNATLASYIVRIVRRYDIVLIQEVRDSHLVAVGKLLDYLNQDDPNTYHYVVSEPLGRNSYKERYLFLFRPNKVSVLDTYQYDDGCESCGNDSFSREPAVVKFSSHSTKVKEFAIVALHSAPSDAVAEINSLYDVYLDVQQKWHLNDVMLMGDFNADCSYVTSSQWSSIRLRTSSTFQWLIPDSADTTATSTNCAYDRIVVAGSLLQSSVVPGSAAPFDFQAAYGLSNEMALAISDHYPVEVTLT
Sequence of Inosine-5'-monophosphate dehydrogenase 2 (Mus musculus) (P24547 whole entry, looked up): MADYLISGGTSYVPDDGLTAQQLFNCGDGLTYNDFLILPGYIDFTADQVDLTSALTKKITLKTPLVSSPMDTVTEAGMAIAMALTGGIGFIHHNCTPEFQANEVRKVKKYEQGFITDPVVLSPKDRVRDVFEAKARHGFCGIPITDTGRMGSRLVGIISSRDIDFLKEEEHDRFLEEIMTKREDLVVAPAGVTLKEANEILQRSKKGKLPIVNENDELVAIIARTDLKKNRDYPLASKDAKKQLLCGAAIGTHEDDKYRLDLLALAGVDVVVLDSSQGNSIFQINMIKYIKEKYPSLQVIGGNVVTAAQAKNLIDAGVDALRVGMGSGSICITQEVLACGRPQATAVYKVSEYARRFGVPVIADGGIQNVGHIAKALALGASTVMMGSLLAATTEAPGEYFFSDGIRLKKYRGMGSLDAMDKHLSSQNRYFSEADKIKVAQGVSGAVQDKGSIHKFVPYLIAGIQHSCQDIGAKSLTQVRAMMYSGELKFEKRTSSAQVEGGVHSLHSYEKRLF

Row | Activity [1] | Activity [2] | Activity [3] | Activity [4] | Activity [5] | Activity [6] | Activity [7] | Activity [8] | Activity [9] | Activity [10] | Activity [11] | Activity [12] | Activity [13] | Activity [14] | Activity [15] | IC50 [16] | Activity [17] | IC50 [18] | Activity [19] | Activity [20] | SMILES | also measured
1 | Active | inactive | inactive | inactive | inactive | inactive | inactive | inactive | inactive | inactive | Active | inactive | inactive | inactive | Active | 11.9 µM | inactive | 59.8 µM | inactive | inactive | COc1cc(O)c2c(=O)oc3c(c2c1)C(C)CC3=O (stereo not drawn) | Activity [21]: Active; Activity [22]: inactive; Activity [23]: inactive; Activity [24]: inactive
2 | Active | inactive | inactive | inactive | inactive | inactive | inactive | inactive | inactive | inactive | Active | inactive | inactive | inactive | Active | 16.3 µM | inactive | 86.5 µM | inactive | inactive | COc1cc(O)c2c(c1)C1(OC2=O)C(C)=CC(=O)C1O (stereo not drawn) [TALAROFLAVONE] | Activity [21]: Active; Activity [22]: inactive; Activity [23]: inactive; Activity [24]: inactive
